Laboratory results reported in patent US5091539A, “Azolyl cycloalkanol derivatives and agricultural fungicides” (Shionogi & Co., Ltd., priority 1984, dated 1992).

Legend:
Type in all cases: in vivo
[1] = system: Botrytis cinerea; test: Control test of Botrytis rot (gray mold) of cucumber
Experimental: (1) Seedlings of cucumber (Cultivar: Matsukaze) were planted in a pot of 9 cm in diameter. The first leaf was sprayed with 3 ml each of solutions containing the test compound at the concentration of 125 or 31.3 ppm and the plant was dried by the air. After inoculation of the spores of Botrytis cinerea, the plants were kept at 20°±2° C. and 90-100% humidity ((i) protective spraying). Alternatively, the spores were inoculated at first and when the leaves suffered a little (about 2 days after), the solutions of the test compounds were sprayed ((ii) curative spraying). Evaluation was practised 3 days after the inoculation. Percent disease control was calculated by the ratio of diameter of diseased area in treated and untreated plants.
(§1) (1) Test methods and evaluation are the same as those in Tests 2, 4 and 6.

[2] = system: Sphaerotheca fuliginea; test: Control test to powdery mildew of cucumber (foliar and soil treatment); details: for Powdery mildew, Foliar Treatment, Curative Effect / Powdery mildew, Foliar Treatment, Protective Effect / Powdery mildew, Soil Treatment, Protective Effect / Foliar Treatment, Curative Effect / Foliar Treatment, Protective Effect / Soil Treatment, Protective Effect: index 0-10
Experimental: (1) Seeds of cucumber (Cultivar: Matsukaze) were sown in a pot of 9 cm in diameter and the pots were kept in a green house until the plant was grown for 2-3 leaf stage. The first leaf was sprayed with, (i) 3 ml each of solutions containing the test compound at the prescribed concetrations and dried by the air (foliar treatment). Inoculation of spore suspension of Sphaerotheca fuliginea by spraying was practised 2 days before the treatment (curative effect) or 1 day after the treatment (protective effect). Alternatively, (ii) 5 ml of the solution was applied at the root of the seedlings (soil treatment). The pots were kept in a greenhouse for 2 days and inoculation was practised in the same manner noted above. (iii) After sprayed with 3 ml of a solution of the test compound at a concentration of 125 ppm and dried by the air, the treated pots were set in a greenhouse. Untreated pots were placed next to the treated pots. Those treated and untreated plants were inoculated with spore suspension. Protective effect of the test compounds by vapor was thus checked. The effect was examined 14 days after the inoculation of the spores.
0: Disease sign is observed on the whole leaf.
3: Disease sign is observed on the leaf in about 50%.
5: Disease sign is observed on the leaf in about 30%.
7: Disease sign is observed on the leaf in about 20%.
9: a little disease sign is observed.
as §1

[3] = system: Sphaerotheca fuliginea; test: Control test to powdery mildew of cucumber by vapor (filter paper disks)
Experimental: (1) The first leaves of young cucumber (Cultivar: Matsukaze) planted in pot of 9 cm in diameter were inoculated with spore suspension of Sphaerotheca fuliginea. After the plants were kept in a greenhouse for 2 days, thin cover plates, 15 mm in diameter, were put on the first leaves. Filter paper disks soaked with 80 μl of test solution at a concentration of 31.3, 7.8, 2.0 or 0.5 ppm were put on the plates for 3 days. Disease degrees were observed 14 days after the inoculation.
It is evaluated as + when an inhibition zone was observed around the plate, as ± when the inhibition zone has nearly the same diameter (8 mm) as that of plate or as - when there is no inhibition zone.
as §1

[4] = system: Sclerotinia sclerotiorum; test: Control test to Sclerotinia rot of cucumber
From the text: (1) This test was practised in the same manner as in the above test, control test of Botrytis rot (gray mold) of cucumber, except for using the mycelium of Sclerotinia sclerotiorum as inoculm. The same as in test 2.

O[C@]1(c2ccc(F)cc2)CCCC[C@H]1n1cncn1 (relative stereo) [Trans-isomer of Compound 28, 1-(4-fluorophenyl)-2-(1,2,4-triazol-1-yl)cyclohexanol, reference compound]
Gray Mold, Percent Disease Control, Curative Spraying ([1]; Table 9, 7.8 ppm): 0% | Gray Mold, Percent Disease Control, Protective Spraying ([1]; Table 9, 7.8 ppm): 3% | Gray Mold, Percent Disease Control, Curative Spraying ([1]; Table 9, 31.3 ppm): 0% | Gray Mold, Percent Disease Control, Protective Spraying ([1]; Table 9, 31.3 ppm): 5% | Gray Mold, Percent Disease Control, Curative Spraying ([1]; Table 9, 125 ppm): 9% | Gray Mold, Percent Disease Control, Protective Spraying ([1]; Table 9, 125 ppm): 0% | Powdery mildew, Foliar Treatment, Curative Effect ([2]; Table 9, 0.03 ppm): 0 | Powdery mildew, Foliar Treatment, Protective Effect ([2]; Table 9, 0.03 ppm): 0 | Powdery mildew, Foliar Treatment, Curative Effect ([2]; Table 9, 0.12 ppm): 0 | Powdery mildew, Foliar Treatment, Protective Effect ([2]; Table 9, 0.12 ppm): 0 | Powdery mildew, Foliar Treatment, Curative Effect ([2]; Table 9, 0.5 ppm): 0 | Powdery mildew, Foliar Treatment, Protective Effect ([2]; Table 9, 0.5 ppm): 0 | Powdery mildew, Soil Treatment, Protective Effect ([2]; Table 9, 0.5 ppm): 0 | Powdery mildew, Foliar Treatment, Curative Effect ([2]; Table 9, 2.0 ppm): 9 | Powdery mildew, Foliar Treatment, Protective Effect ([2]; Table 9, 2.0 ppm): 0 | Powdery mildew, Soil Treatment, Protective Effect ([2]; Table 9, 2.0 ppm): 0 | Powdery mildew, Soil Treatment, Protective Effect ([2]; Table 9, 7.8 ppm): 0 | Powdery mildew, Soil Treatment, Protective Effect ([2]; Table 9, 31.3 ppm): 9 | Powdery mildew, Vapor Effect ([3]; Table 9, 2.0 ppm): - | Powdery mildew, Vapor Effect ([3]; Table 9, 7.8 ppm): - | Powdery mildew, Vapor Effect ([3]; Table 9, 31.3 ppm): -

O[C@@]1(c2cc(Cl)ccc2Cl)CCCC[C@H]1n1cncn1 (relative stereo) [Compound 35]
Foliar Treatment, Curative Effect ([2]; second Table 4, 0.5 ppm): 10 | Foliar Treatment, Protective Effect ([2]; second Table 4, 0.5 ppm): 5 (Disease sign is observed on the leaf in about 30%.) | Soil Treatment, Protective Effect ([2]; second Table 4, 0.5 ppm): 0 | Foliar Treatment, Curative Effect ([2]; second Table 4, 2.0 ppm): 10 | Foliar Treatment, Protective Effect ([2]; second Table 4, 2.0 ppm): 10 | Soil Treatment, Protective Effect ([2]; second Table 4, 2.0 ppm): 0 | Foliar Treatment, Curative Effect ([2]; second Table 4, 7.8 ppm): 10 | Foliar Treatment, Protective Effect ([2]; second Table 4, 7.8 ppm): 10 | Soil Treatment, Protective Effect ([2]; second Table 4, 7.8 ppm): 9 | Foliar Treatment, Curative Effect ([2]; second Table 4, 31.3 ppm): 10 | Foliar Treatment, Protective Effect ([2]; second Table 4, 31.3 ppm): 10 | Soil Treatment, Protective Effect ([2]; second Table 4, 31.3 ppm): 10

O[C@@]1(c2ccc(Cl)c(Cl)c2)CCCCC[C@H]1n1cncn1 (relative stereo) [Compound 34]
Foliar Treatment, Curative Effect ([2]; second Table 4, 0.5 ppm): 5 (Disease sign is observed on the leaf in about 30%.) | Foliar Treatment, Protective Effect ([2]; second Table 4, 0.5 ppm): 0 | Soil Treatment, Protective Effect ([2]; second Table 4, 0.5 ppm): 0 | Foliar Treatment, Curative Effect ([2]; second Table 4, 2.0 ppm): 10 | Foliar Treatment, Protective Effect ([2]; second Table 4, 2.0 ppm): 0 | Soil Treatment, Protective Effect ([2]; second Table 4, 2.0 ppm): 0 | Foliar Treatment, Curative Effect ([2]; second Table 4, 7.8 ppm): 10 | Foliar Treatment, Protective Effect ([2]; second Table 4, 7.8 ppm): 9 | Soil Treatment, Protective Effect ([2]; second Table 4, 7.8 ppm): 0 | Foliar Treatment, Curative Effect ([2]; second Table 4, 31.3 ppm): 10 | Foliar Treatment, Protective Effect ([2]; second Table 4, 31.3 ppm): 10 | Soil Treatment, Protective Effect ([2]; second Table 4, 31.3 ppm): 0

CC(C)NC(=O)N1CC(=O)N(c2cc(Cl)cc(Cl)c2)C1=O [Iprodione, reference compound]
Percent Disease Control, Curative Spraying ([1]; Table 2, 31.3 ppm): 64% | Percent Disease Control, Protective Spraying ([1]; Table 2, 31.3 ppm): 100% | Percent Disease Control, Curative Spraying ([1]; Table 2, 125 ppm): 90% | Percent Disease Control, Protective Spraying ([1]; Table 2, 125 ppm): 100% | Percent Disease Control, Curative Spraying ([4]; 31.3 ppm): 77% | Percent Disease Control, Protective Spraying ([4]; 31.3 ppm): 100% | Percent Disease Control, Curative Spraying ([4]; 125 ppm): 90% | Percent Disease Control, Protective Spraying ([4]; 125 ppm): 100%

O[C@@]1(c2ccc(F)cc2)CCCCC[C@H]1n1ccnc1 (relative stereo) [Compound 23]
Foliar Treatment, Curative Effect ([2]; second Table 4, 0.5 ppm): 0 | Foliar Treatment, Protective Effect ([2]; second Table 4, 0.5 ppm): 0 | Foliar Treatment, Curative Effect ([2]; second Table 4, 2.0 ppm): 3 (Disease sign is observed on the leaf in about 50%.) | Foliar Treatment, Protective Effect ([2]; second Table 4, 2.0 ppm): 5 (Disease sign is observed on the leaf in about 30%.) | Foliar Treatment, Curative Effect ([2]; second Table 4, 7.8 ppm): 10 | Foliar Treatment, Protective Effect ([2]; second Table 4, 7.8 ppm): 10 | Foliar Treatment, Curative Effect ([2]; second Table 4, 31.3 ppm): 10 | Foliar Treatment, Protective Effect ([2]; second Table 4, 31.3 ppm): 10

O[C@@]1(Cc2ccc(Cl)cc2Cl)CCCC[C@H]1n1cncn1 (relative stereo) [Compound 3, cis-1-(2,4-dichlorobenzyl)-2-(1,2,4-triazol-1-yl)cyclohexanol]
Protective Index, Foliar Treatment ([2]; first Table 4, 125 ppm, foliar, 14 days): 10 | Protective Index, Soil Treatment ([2]; first Table 4, 125 ppm, soil, 14 days): 10

O[C@@]1(c2ccc(Cl)cc2)CCCC[C@H]1n1ccnc1 (relative stereo) [Compound 26]
Foliar Treatment, Curative Effect ([2]; second Table 4, 0.5 ppm): 0 | Foliar Treatment, Protective Effect ([2]; second Table 4, 0.5 ppm): 0 | Foliar Treatment, Curative Effect ([2]; second Table 4, 2.0 ppm): 7 (Disease sign is observed on the leaf in about 20%.) | Foliar Treatment, Protective Effect ([2]; second Table 4, 2.0 ppm): 3 (Disease sign is observed on the leaf in about 50%.) | Foliar Treatment, Curative Effect ([2]; second Table 4, 7.8 ppm): 9 | Foliar Treatment, Protective Effect ([2]; second Table 4, 7.8 ppm): 9 | Foliar Treatment, Curative Effect ([2]; second Table 4, 31.3 ppm): 10 | Foliar Treatment, Protective Effect ([2]; second Table 4, 31.3 ppm): 10
